{"source": "patent US6747027B1", "about": "“Thiol sulfonamide metalloprotease inhibitors” (Pharmacia Corporation, priority 1996, dated 2004)", "key": {"recombinant human MMP-13": {"molecular_target": "T1, recombinant human MMP-13 (Homo sapiens, UniProt P45452)", "T1 construct": "made in house", "assay": "In vitro metalloprotease inhibition, fluorogenic peptide assay (MMP-13)", "format": "biochemical", "details": "recombinant human MMP-13, APMA activated; fluorogenic MCA peptide substrate 4 uM; pH 7.5, room temperature", "in_short": "(§1)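 APMA-activated recombinant human MMP-13 (baculovirus-expressed) and MMP-1 (HT-1080-expressed) preincubated with inhibitor 10 min at room temperature in Tris/NaCl/CaCl2 buffer, pH 7.5, 1% DMSO final. MCA-PLGL-Dpa-AR-NH2 substrate at 4 uM final; cleavage read as fluorescence (ex 328/em 415 nm). IC50 from fluorescence reduction versus inhibitor concentration.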"}, "recombinant human MMP-1": {"molecular_target": "T2, recombinant human MMP-1 (Homo sapiens, UniProt P03956)", "T2 construct": "made in house; host or cells: transfected HT-1080 cells (provided by Dr. Howard Welgus, Washington University)", "T2 sequence (P03956 100-469)": "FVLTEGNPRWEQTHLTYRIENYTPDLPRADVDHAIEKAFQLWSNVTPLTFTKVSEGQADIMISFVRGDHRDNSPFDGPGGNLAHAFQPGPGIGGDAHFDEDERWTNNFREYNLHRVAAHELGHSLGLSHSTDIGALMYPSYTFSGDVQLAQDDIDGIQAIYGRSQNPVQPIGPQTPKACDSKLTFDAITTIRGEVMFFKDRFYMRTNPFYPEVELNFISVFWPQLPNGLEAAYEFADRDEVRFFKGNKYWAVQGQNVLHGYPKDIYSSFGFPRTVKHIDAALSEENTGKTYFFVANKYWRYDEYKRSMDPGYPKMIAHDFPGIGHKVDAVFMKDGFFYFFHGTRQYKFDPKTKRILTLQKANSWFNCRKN", "assay": "In vitro metalloprotease inhibition, fluorogenic peptide assay (MMP-1)", "format": "biochemical", "details": "recombinant human MMP-1, APMA activated; fluorogenic MCA peptide substrate 4 uM; pH 7.5, room temperature", "in_short": "as §1"}, "[1]": {"tested_on": "angiogenesis in the cornea of a mouse", "assay": "In vivo angiogenesis assay (corneal micropocket assay, bFGF pellet)", "details": "C57Bl/6 female mouse, 50 mg/kg bid, po, scored at day five", "experimental": "The study of angiogenesis depends on a reliable and reproducible model for the stimulation and inhibition of a neovascular response. The corneal micropocket assay provides such a model of angiogenesis in the cornea of a mouse. See, A Model of Angiogenesis in the Mouse Cornea; Kenyon, B M, et al., Investigative Ophthalmology & Visual Science, July 1996, Vol. 37, No. 8.\nIn this assay, uniformly sized Hydron™ pellets containing bFGF and sucralfate were prepared and surgically implanted into the stroma mouse cornea adjacent to the temporal limbus. […]\nMice were dosed on a daily basis for the duration of the assay. […] At day five, the degree of angiogenic inhibition was scored by viewing the neovascular progression with a slit lamp microscope.\nThe mice were anesthetized and the studied eye was once again proptosed. The maximum vessel length of neovascularization, extending from the limbal vascular plexus toward the pellet was measured. In addition, the contiguous circumferential zone of neovascularization was measured as clock hours, where 30 degrees of arc equals 1 clock hour. The area of angiogenesis was calculated as [formula]\nwhere the vessel length is measured in millimeters.\nThe studied mice were thereafter compared to control mice and the difference in the area of neovascularization was recorded."}}, "data": [{"molecule": "NC(=O)[C@H](CS)N(CCN1CCOCC1)S(=O)(=O)c1ccc(NC(=O)c2ccccc2)cc1", "note": "[Example 218, N-(4-benzoylamino)phenylsulfonyl-N-(4-(morpholino-ethyl))-L-cysteine amide]", "values": [{"measurement": "IC50", "setting": "recombinant human MMP-13", "value": 1.1, "unit": "nM"}, {"measurement": "IC50", "setting": "recombinant human MMP-1", "value": "> 10", "unit": "µM"}, {"measurement": "inhibition of area of neovascularization versus control mice", "setting": "[1]", "value": 37, "unit": "%"}]}, {"molecule": "N-(2-mercapto-1R-methylethyl)-4-n-pentyl)benzenesulfonamide [Example 71]", "values": [{"measurement": "IC50", "setting": "recombinant human MMP-13", "value": 40, "unit": "nM"}, {"measurement": "IC50", "setting": "recombinant human MMP-1", "value": "> 10", "unit": "µM"}]}, {"molecule": "CC(=O)Nc1ccc(S(=O)(=O)N[C@@H](CS)C(N)=O)cc1", "note": "[Example 199]", "values": [{"measurement": "IC50", "setting": "recombinant human MMP-13", "value": 350, "unit": "nM"}, {"measurement": "IC50", "setting": "recombinant human MMP-1", "value": "> 10", "unit": "µM"}]}, {"molecule": "COCCOc1ccc(S(=O)(=O)N(CCN2CCOCC2)[C@H](C)CS)cc1", "note": "[Example 114]", "values": [{"measurement": "IC50", "setting": "recombinant human MMP-13", "value": 45, "unit": "nM"}, {"measurement": "IC50", "setting": "recombinant human MMP-1", "value": "> 10", "unit": "µM"}]}, {"molecule": "C[C@H](CS)NS(=O)(=O)c1ccc(Br)cc1", "note": "[Example 65, N-(2-mercapto-1R-methylethyl)-4-bromobenzenesulfonamide]", "values": [{"measurement": "IC50", "setting": "recombinant human MMP-13", "value": 445, "unit": "nM"}, {"measurement": "IC50", "setting": "recombinant human MMP-1", "value": 1, "unit": "µM"}]}, {"molecule": "CCCCOc1ccc(S(=O)(=O)N[C@H](C)CS)cc1", "note": "[Example 15, N-(2-Mercapto-1R-methylethyl)-4-(n-butoxy)benzenesulfonamide]", "values": [{"measurement": "IC50", "setting": "recombinant human MMP-13", "value": 75, "unit": "nM"}, {"measurement": "IC50", "setting": "recombinant human MMP-1", "value": "> 10", "unit": "µM"}]}, {"molecule": "COc1ccc(S(=O)(=O)N(Cc2ccccc2)C(CS)CC(C)C)cc1", "note": "(racemic) [Example 29F, N-[1-(Mercaptomethyl)-3-methylbutyl]-N-(phenylmethyl)-4-methoxybenzenesulfonamide]", "values": [{"measurement": "IC50", "setting": "recombinant human MMP-13", "value": 1800, "unit": "nM"}, {"measurement": "IC50", "setting": "recombinant human MMP-1", "value": 8, "unit": "µM"}]}, {"molecule": "CCCCOc1ccc(S(=O)(=O)N[C@@H](CS)C(=O)NCC(=O)O)cc1", "note": "[Example 179]", "values": [{"measurement": "IC50", "setting": "recombinant human MMP-13", "value": 23.5, "unit": "nM"}, {"measurement": "IC50", "setting": "recombinant human MMP-1", "value": 2, "unit": "µM"}]}, {"molecule": "C[C@H](CS)N(Cc1ccccc1)S(=O)(=O)c1ccc2c(c1)OCO2", "note": "[Example 21C, N-(2-Mercapto-1R-methylethyl)-N-(phenylmethyl)-5-(1,3-benzodioxol-5-yl)sulfonamide]", "values": [{"measurement": "IC50", "setting": "recombinant human MMP-13", "value": 200, "unit": "nM"}, {"measurement": "IC50", "setting": "recombinant human MMP-1", "value": 7, "unit": "µM"}]}, {"molecule": "COc1ccc(S(=O)(=O)N(Cc2ccccc2)C(CSC(C)=O)C(C)C)cc1", "note": "(centres unmarked) [Example 33C]", "values": [{"measurement": "IC50", "setting": "recombinant human MMP-13", "value": 345, "unit": "nM"}, {"measurement": "IC50", "setting": "recombinant human MMP-1", "value": "> 10", "unit": "µM"}]}, {"molecule": "CCCCOc1ccc(S(=O)(=O)N(CCN2CCCC2)[C@H](C)CS)cc1", "note": "[Example 47C, N-(2-Mercapto-1R-methylethyl)-N-[2-(1-pyrrolidino)ethyl]-4-(n-butoxy)benzenesulfonamide]", "values": [{"measurement": "IC50", "setting": "recombinant human MMP-13", "value": 4.47, "unit": "nM"}, {"measurement": "IC50", "setting": "recombinant human MMP-1", "value": 4.83, "unit": "µM"}]}]}
